Test results from ChEMBL document CHEMBL4152345, “Discovery of Novel 1,3,8-Triazaspiro[4.5]decane Derivatives That Target the c Subunit of F1/FO-Adenosine Triphosphate (ATP) Synthase for the Treatment of Reperfusion Damage in Myocardial Infarction” (J Med Chem, 2018).
Active and inactive are the calls of the source. No cut-off for these calls is given here.

What was measured:
[1] = Drug uptake in human HeLa cells mitochondrial fraction assessed as retention time by HPLC-HRMS analysis; format: ADME, mitochondria, Mitochondria
HeLa [2] = test: Reduction in mitochondrial ATP content in human HeLa cells expressing mitochondrially targeted Photinus pyralis luciferase at 1 uM by luciferin-luciferase assay; format: ADME, cell-based
HeLa [3] = test: Binding affinity of F1F0-ATP synthase c subunit in human HeLa cells at 60 to 80 degC after 30 mins by cellular thermal shift assay; format: cell-based
[4] = Drug uptake in human HeLa cells endoplasmic reticulam fraction by HPLC-HRMS analysis; format: ADME, subcellular
HeLa [5] = test: Reduction in mitochondrial ATP content in human HeLa cells expressing mitochondrially targeted Photinus pyralis luciferase at 1 uM in presence of 100 um histamine by luciferin-luciferase assay; format: ADME, cell-based
[6] = target: ATP synthase F(1) complex subunit alpha, mitochondrial (Homo sapiens) (UniProt P25705); test: Binding affinity of ATP5A in human HeLa cells assessed as melting temperature after 30 mins by cellular thermal shift assay; format: cell-based
ATP synthase F(1) complex subunit alpha, mitochondrial (Homo sapiens), sequence (P25705 whole entry, one chain of several): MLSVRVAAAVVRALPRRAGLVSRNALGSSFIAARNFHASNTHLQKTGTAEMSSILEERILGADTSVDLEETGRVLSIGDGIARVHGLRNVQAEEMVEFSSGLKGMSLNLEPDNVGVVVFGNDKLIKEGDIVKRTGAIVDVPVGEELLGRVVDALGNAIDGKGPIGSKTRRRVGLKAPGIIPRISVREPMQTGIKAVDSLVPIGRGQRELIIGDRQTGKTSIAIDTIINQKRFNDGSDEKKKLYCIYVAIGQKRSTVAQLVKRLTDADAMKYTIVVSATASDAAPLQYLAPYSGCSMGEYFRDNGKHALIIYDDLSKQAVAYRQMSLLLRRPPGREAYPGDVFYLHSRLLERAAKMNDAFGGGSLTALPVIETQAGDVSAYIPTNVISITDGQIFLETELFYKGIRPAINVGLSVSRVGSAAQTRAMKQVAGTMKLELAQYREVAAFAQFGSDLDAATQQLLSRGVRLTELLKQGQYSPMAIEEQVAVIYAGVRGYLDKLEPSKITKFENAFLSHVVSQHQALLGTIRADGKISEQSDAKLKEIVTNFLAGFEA

Homo sapiens = organism: Homo sapiens; test: Binding affinity of F1F0-ATP synthase c subunit in isolated mitochondria of human HeLa cells after 30 mins by UPLC-XEVO-TQD analysis
[7] = Drug uptake in human HeLa cells cytosolic fraction by HPLC-HRMS analysis; format: ADME, subcellular; settings: cytosol
[8] = Drug uptake in human HeLa cells mitochondrial fraction by HPLC-HRMS analysis; format: ADME, mitochondria, Mitochondria
Mus musculus = organism: Mus musculus; test: Inhibition of Inhibition of F1F0-ATP synthase subunit C in SV129 mouse liver mitochondria assessed as reduction of Ca2+ induced mPTP opening by measuring reduction in mitochondrial swelling at 1 uM measured after 10 mins relative to control
HeLa [9] = test: Inhibition of F1F0-ATP synthase subunit C in human HeLa cells assessed as reduction of ionomycin-induced Ca2+ mediated mPTP opening at 1 uM preincubated for 30 secs followed by ionomycin addition by calcein-cobalt based assay relative to control; format: cell-based
Heart [10] = test: Cardioprotective activity in Langendorff perfused Wistar rat heart model of ischemia-reperfusion injury model assessed as reduction of end diastolic pressure at 10 uM dosed during first 10 mins reflow; format: functional; set-up: scale not given: the % may be the effect or the level left
HeLa [11] = test: Effect on network volume of mitochondria in human HeLa cells after 24 hrs by calcin staining based microscopic analysis; format: ADME, cell-based
HeLa [12] = test: Cytotoxicity against human HeLa cells assessed as reduction in cell viability at 1 to 10 uM after 72 hrs by MTT assay; format: cell-based
HeLa [13] = test: Inhibition of F1F0-ATP synthase subunit C in human HeLa cells assessed as enzyme dimerization by measuring mitochondrial permeability transition at 1 uM by PLA based assay; format: cell-based
HeLa [14] = test: Cytotoxicity against human HeLa cells assessed as reduction in cell viability at 1 to 10 uM after 24 to 48 hrs by MTT assay; format: cell-based
HeLa [15] = test: Effect on mitochondrial morphology in human HeLa cells after 24 hrs by mtCherry staining based microscopic analysis; format: ADME, cell-based
Heart [16] = test: Cardioprotective activity in Langendorff perfused Wistar rat heart model of ischemia-reperfusion injury model assessed as reduction of apoptosis at 10 uM dosed during first 10 mins reflow by TUNEL assay; format: functional
Heart [17] = test: Cardioprotective activity in Langendorff perfused Wistar rat heart model of ischemia-reperfusion injury model assessed as increase left ventricular developed pressure at 10 uM dosed during first 10 mins reflow; format: functional
HeLa [18] = test: Effect on basal mitochondrial membrane potential in human HeLa cells by TMRM dye based fluorescence assay; format: ADME, cell-based
HeLa [19] = test: Inhibition of F1F0-ATP synthase subunit C in human HeLa cells assessed as reduction of cytC release at 1 uM after 5 mins by immunoblot analysis; format: cell-based
HeLa [20] = test: Effect on mitochondrial calcium uptake in human HeLa cells after 24 hrs by aequorin luminometric analysis; format: ADME, cell-based
Heart [21] = test: Cardioprotective activity in Langendorff perfused Wistar rat heart model of ischemia-reperfusion injury model assessed as reduction of coronary perfusion pressure at 10 uM dosed during first 10 mins reflow; format: functional; set-up: scale not given: the % may be the effect or the level left
HeLa [22] = test: Effect on number of mitochondria in human HeLa cells after 24 hrs by mtCherry staining based microscopic analysis; format: ADME, cell-based
HeLa [23] = test: Inhibition of F1F0-ATP synthase subunit C in human HeLa cells assessed as reduction in apoptosis by TUNEL assay; format: cell-based

Which results are given for `Cc1ccc(S(=O)(=O)N2CCC3(CC2)C(=O)NCN3c2ccccc2)cc1`?
Retention_time [1]: 8.2 min; Activity (HeLa [2]): Toxic; Activity (HeLa [3]): Active; Drug uptake [4]: Not Active; Activity (HeLa [5]): Toxic; Activity [6]: inactive; Activity (Homo sapiens): Active; Drug uptake [7]: Not Active; Drug uptake [8]: Active; inhibition (Mus musculus): Active; inhibition (HeLa [9]): 30.7 to 50%

Which inhibition (HeLa [9]) does the source give for `O=C1NCN(c2ccc(Cl)cc2)C12CCN(Cc1ccccc1)CC2` here?
The inhibition was 51.4%.

For `O=C1N=CN(c2ccccc2)C12CCN(Cc1ccccc1)CC2`, which inhibition (HeLa [9]) is on record?
The inhibition was 41.4%.

Which Drug uptake [4] does the source give for `CCC1/C=C/C=C/C[C@H](C)[C@@H](O)[C@](C)(O)C(=O)[C@@H](C)[C@H](O)[C@@H](C)C(=O)[C@H](C)[C@@H](O)[C@H](C)/C=C/C(=O)OC2[C@@H](C)C(CC1)OC1(CC[C@@H](C)C(C[C@H](C)O)O1)[C@@H]2C` (stereo not given in full) here?
The Drug uptake was “Active”.

And the Drug uptake [7]?
The Drug uptake was “Active”.

What about the Drug uptake [8] of the same compound?
The Drug uptake was “Active”.

With `O=C(Nc1ccccc1)N1CCC2(CC1)C(=O)NCN2c1ccccc1` as the compound, how does the inhibition (HeLa [9]) read?
The inhibition was “inactive”.

Which inhibition (HeLa [9]) does the source give for `Cc1ccc(N2C=NC(=O)C23CCN(Cc2ccccc2)CC3)cc1` here?
The inhibition was 18.7%.

With `CC(=O)N1CCC2(CC1)C(=O)NCN2c1ccccc1` as the compound, how does the inhibition (HeLa [9]) read?
The inhibition was 47.9%.

Which inhibition (HeLa [9]) does the source give for `O=C1NCN(c2ccccc2)C12CCN(S(=O)(=O)c1ccc(F)cc1)CC2` here?
Its inhibition is 45.5%.

Which inhibition (HeLa [9]) does the source give for `CC(C)c1ccc(N2CNC(=O)C23CCN(Cc2ccccc2)CC3)cc1` here?
Its inhibition is 20%.

For `COc1ccc(N2CNC(=O)C23CCN(Cc2ccccc2)CC3)cc1`, which inhibition (HeLa [9]) is on record?
The inhibition was 26.2%.

For `O=C1NCN(c2ccc(F)cc2)C12CCN(S(=O)(=O)c1ccc(F)cc1)CC2`, which inhibition (HeLa [9]) is on record?
Its inhibition is 9.1%.

Which inhibition (HeLa [9]) does the source give for `COc1ccc(N2C=NC(=O)C23CCN(Cc2ccccc2)CC3)cc1` here?
Its inhibition is 43.8%.

Which inhibition (HeLa [9]) does the source give for `CC(C)c1ccc(N2C=NC(=O)C23CCN(Cc2ccccc2)CC3)cc1` here?
The inhibition was 6.5%.

With `O=C1N=CN(c2cccc(C(F)(F)F)c2)C12CCN(Cc1ccccc1)CC2` as the compound, how does the inhibition (HeLa [9]) read?
Its inhibition is 32.1%.

For `CS(=O)(=O)N1CCC2(CC1)C(=O)NCN2c1ccccc1`, which inhibition (HeLa [9]) is on record?
The inhibition was 47.5%.

With `Cc1ccc(N2CNC(=O)C23CCN(Cc2ccccc2)CC3)cc1` as the compound, how does the inhibition (HeLa [9]) read?
Its inhibition is 18.1%.

For `O=C1NCN(c2ccccc2)C12CCN(S(=O)(=O)c1ccc(Cl)s1)CC2`, which Activity (Heart [10]) is on record?
The Activity was 72%.

What about the Activity (HeLa [11]) of the same compound?
The Activity was “Non-Toxic”.

What about the Activity (HeLa [12]) of the same compound?
Its Activity is “Toxic”.

And the inhibition (HeLa [13])?
The inhibition was “Active”.

And the Activity (HeLa [14])?
Its Activity is “Non-Toxic”.

And the Activity (HeLa [2])?
Its Activity is “Non-Toxic”.

What about the Activity (HeLa [15]) of the same compound?
The Activity was “Non-Toxic”.

What about the Activity (Heart [16]) of the same compound?
Its Activity is “Active”.

And the Activity (HeLa [5])?
The Activity was “Non-Toxic”.

And the Activity (Heart [17])?
Its Activity is 36.4%.

What about the Activity (HeLa [18]) of the same compound?
The Activity was “Non-Toxic”.

What about the inhibition (Mus musculus) of the same compound?
Its inhibition is “Active”.

And the inhibition (HeLa [19])?
Its inhibition is “Active”.

What about the inhibition (HeLa [9]) of the same compound?
The inhibition was 66.8%.

And the Activity (HeLa [20])?
Its Activity is “Non-Toxic”.

What about the Activity (Heart [21]) of the same compound?
Its Activity is 17.5%.

And the Activity (HeLa [22])?
The Activity was “Non-Toxic”.

What about the inhibition (HeLa [23]) of the same compound?
The inhibition was “Active”.

With `O=C(NC1CCCCC1)N1CCC2(CC1)C(=O)NCN2c1ccccc1` as the compound, how does the inhibition (HeLa [9]) read?
The inhibition was 51.3%.

For `O=C1NCN(c2ccccc2)C12CCN(Cc1ccccc1)CC2`, which inhibition (HeLa [9]) is on record?
Its inhibition is 36.8%.

Which inhibition (HeLa [9]) does the source give for `O=C1NCN(c2ccccc2)C12CCN(C(=S)NC1CCCCC1)CC2` here?
The inhibition was 33.6%.

With `O=C1N=CN(c2ccc(F)cc2)C12CCN(Cc1ccccc1)CC2` as the compound, how does the inhibition (HeLa [9]) read?
The inhibition was 28.8%.

For `O=C(c1ccccc1)N1CCC2(CC1)C(=O)NCN2c1ccccc1`, which inhibition (HeLa [9]) is on record?
The inhibition was 43.9%.

With `O=C1NCN(c2cccc(C(F)(F)F)c2)C12CCN(Cc1ccccc1)CC2` as the compound, how does the Activity (HeLa [11]) read?
The Activity was “Non-Toxic”.

And the Activity (HeLa [12])?
Its Activity is “Toxic”.

And the inhibition (HeLa [13])?
Its inhibition is “Active”.

And the Activity (HeLa [14])?
Its Activity is “Non-Toxic”.

What about the Activity (HeLa [2]) of the same compound?
Its Activity is “Non-Toxic”.

What about the Activity (HeLa [15]) of the same compound?
Its Activity is “Non-Toxic”.

What about the Activity (HeLa [5]) of the same compound?
Its Activity is “Non-Toxic”.

And the Activity (HeLa [18])?
Its Activity is “Non-Toxic”.

What about the inhibition (Mus musculus) of the same compound?
Its inhibition is “Active”.

And the inhibition (HeLa [19])?
Its inhibition is “Active”.

What about the inhibition (HeLa [9]) of the same compound?
The inhibition was 65.5%.

And the Activity (HeLa [20])?
The Activity was “Non-Toxic”.

What about the Activity (HeLa [22]) of the same compound?
The Activity was “Non-Toxic”.

And the inhibition (HeLa [23])?
Its inhibition is “Active”.

With `O=C1N=CN(c2ccc(Cl)cc2)C12CCN(Cc1ccccc1)CC2` as the compound, how does the Activity (HeLa [11]) read?
Its Activity is “Non-Toxic”.

What about the Activity (HeLa [12]) of the same compound?
Its Activity is “Toxic”.

What about the Activity (HeLa [14]) of the same compound?
The Activity was “Non-Toxic”.

What about the Activity (HeLa [2]) of the same compound?
The Activity was “Toxic”.

And the Activity (HeLa [15])?
Its Activity is “Non-Toxic”.

And the Activity (HeLa [5])?
Its Activity is “Non-Toxic”.

What about the Activity (HeLa [18]) of the same compound?
Its Activity is “Non-Toxic”.

What about the inhibition (Mus musculus) of the same compound?
The inhibition was “Active”.

What about the inhibition (HeLa [19]) of the same compound?
The inhibition was “Active”.

What about the inhibition (HeLa [9]) of the same compound?
The inhibition was 57.4%.

And the Activity (HeLa [20])?
The Activity was “Non-Toxic”.

And the Activity (HeLa [22])?
The Activity was “Non-Toxic”.

What about the inhibition (HeLa [23]) of the same compound?
Its inhibition is “Active”.

Which inhibition (HeLa [9]) does the source give for `O=C1NCN(c2ccc(F)cc2)C12CCN(Cc1ccccc1)CC2` here?
The inhibition was 42.9%.

For `O=C1NCN(c2ccc(F)cc2)C12CCN(S(=O)(=O)c1ccc(Cl)s1)CC2`, which inhibition (HeLa [9]) is on record?
Its inhibition is 12.6%.
